This note sets out measurements from US20090143469A1, “SALTS OF NATEGLINIDE” (priority 2002, published 2009).

The term solubility denotes the concentration that dissolves in the medium under given conditions.

Like-named read-outs stand apart in the source and are kept apart here.

Holding throughout (type): physicochemical
Series [1] can be described thus: Solubility in water of nateglinide salts.
A short description of series [2]: Bulk density of nateglinide salts.
Series [3] in a line: Gain in weight at 84% RH (hygroscopicity) of nateglinide salts. The note with it: for Gain % (gain in weight at 84% RH): 84% RH (relative humidity), * = XRPD changed, confirmed by Thermalgravimetry; for hygroscopicity (in words): different relative humidities.

As for `[Ca]` [Calcium], the “Solubility Water” value in series [1] is 540 µg/mL. For the same compound, in series [2], the “Bulk Density” value was found to be 0.24 g/mL.

Take `CC(C)[C@H]1CC[C@H](C(=O)N[C@H](Cc2ccccc2)C(=O)[O-])CC1.CC(C)[C@H]1CC[C@H](C(=O)N[C@H](Cc2ccccc2)C(=O)[O-])CC1.[Mg+2]` [Comp. No. 11]: in series [3], the “Gain % (gain in weight at 84% RH)” value is below 0.1% and the “hygroscopicity (in words)” value was “non-hygroscopic”. For the same compound, in series [1], the “Solubility Water” value worked out at 450 µg/mL and the “water solubility compared with other forms (in words)” value is recorded as “comparable to that of the calcium analogue”. Besides, the “Bulk Density” value in series [2] was 0.21 g/mL.

Turning to `CC(C)[C@H]1CC[C@H](C(=O)N[C@H](Cc2ccccc2)C(=O)O)CC1.CNC[C@H](O)[C@@H](O)[C@H](O)[C@H](O)CO` [Comp. No. 12], in series [3], the “Gain % (gain in weight at 84% RH)” value is reported as below 0.1% and the “hygroscopicity (in words)” value is reported as “non-hygroscopic”. Further, in series [1], the “Solubility Water” value was 7300 µg/mL and the “water solubility compared with other forms (in words)” value is listed as “lower than that of the alkaline metal salts of nateglinide”. The “Bulk Density” value in series [2] amounted to 0.16 g/mL.

On to `CC(C)[C@H]1CC[C@H](C(=O)N[C@H](Cc2ccccc2)C(=O)O)CC1.NC(CO)(CO)CO` [Comp. No. 13], for which the “Gain % (gain in weight at 84% RH)” value in series [3] is on record as below 0.1%. The “Solubility Water” value was above 40000 µg/mL in series [1] (listed as TRIS) and “more than 40 mg/ml” in series [1] (listed as tris(hydroxymethyl)-aminomethane salt of nateglinide). For the same compound, the “Bulk Density” value in series [2] was 0.51 g/mL.

In the case of `CC(C)[C@H]1CC[C@H](C(=O)N[C@H](Cc2ccccc2)C(=O)O)CC1.NCCCCC(N)C(=O)O` [Comp. No. 14], in series [3], the “Gain % (gain in weight at 84% RH)” value is recorded as 1.3%.

`CC(C)C1CCC(C(=O)NC(Cc2ccccc2)C(=O)O)CC1.N` (stereo not drawn) [Comp. No. 17]: the “Gain % (gain in weight at 84% RH)” value in series [3] is reported as below 0.1%.

`CC(C)[C@H]1CC[C@H](C(=O)N[C@H](Cc2ccccc2)C(=O)[O-])CC1.[Na+]` [Compound No. 1]: in series [3], the “Gain % (gain in weight at 84% RH)” value is recorded as 1.19%.

Turning to `CC(C)C1CCC(C(=O)NC(Cc2ccccc2)C(=O)[O-])CC1.[K+]` (stereo not drawn) [Compound No. 5], the “Gain % (gain in weight at 84% RH)” value in series [3] was 8.2* %.

For `CC(C)C1CCC(C(=O)NC(Cc2ccccc2)C(=O)[O-])CC1.CC(C)C1CCC(C(=O)NC(Cc2ccccc2)C(=O)[O-])CC1.[Ca+2]` (stereo not drawn) [Compound No. 9], the “Gain % (gain in weight at 84% RH)” value in series [3] came out at 0.4%.

On to `CC(C)[C@H]1CC[C@H](C(=O)N[C@H](Cc2ccccc2)C(=O)O)CC1` [Form B of nateglinide, N-(trans-4-isopropylcyclohexylcarbonyl)-D-phenylalanine, reference compound], for which the solubility in series [1] turned out to be 90 µg/mL. Also, in series [2], the “Bulk Density” value worked out at 0.18 g/mL.

Turning to `CC(C)[C@H]1CC[C@H](C(=O)N[C@H](Cc2ccccc2)C(=O)O)CC1` [Form H of nateglinide, N-(trans-4-isopropylcyclohexylcarbonyl)-D-phenylalanine, reference compound], the “Gain % (gain in weight at 84% RH)” value in series [3] was below 0.1%. In addition, the “Solubility Water” value in series [1] worked out at 90 µg/mL. For the same compound, the “Bulk Density” value in series [2] is 0.28 g/mL.

With `[K+]` [Potassium], the “Solubility Water” value in series [1] is above 40000 µg/mL. Further, in series [2], the “Bulk Density” value was determined as 0.17 g/mL.

For the compound `CC(C)[C@H]1CC[C@H](C(=O)N[C@H](Cc2ccccc2)C(=O)[O-])CC1.[Na+]` [Sodium], the “Solubility Water” value in series [1] was above 40000 µg/mL. The “Bulk Density” value in series [2] was found to be 0.14 g/mL.

Regarding Ammonium, the “Solubility Water” value in series [1] is below 200 µg/mL. The “Bulk Density” value in series [2] amounted to 0.20 g/mL.

On to Lysine, for which the “Bulk Density” value in series [2] turned out to be 0.50 g/mL.
